According to patent publication US20240059711A1, “Cereblon Ligands and Uses Thereof” (REGENTS OF THE UNIVERSITY OF MICHIGAN, priority 2022, published 2024):

Target: GST-tagged wild-type human CRBN protein (Homo sapiens (Human), UniProt Q96SW2)
Test: Cereblon binding assay (CRBN TR-FRET, Cisbio Cereblon Binding Kit)
Conditions: XL665-labelled Thalidomide tracer, about 3 hours at room temperature
Experimental: The binding to cereblon (CRBN) was determined using the Cereblon Binding Kit (Cisbio, #64BDCRBNPEG) following the manufacturer's instruction. Briefly, serially diluted compounds were incubated with GST-tagged wild-type human CRBN protein, XL665-labelled Thalidomide and Europium Cryptate labelled GST antibody at room temperature for about 3 hours. Time Resolved Fluorescence Resonance Energy Transfer (TR-FRET) measurements were acquired on a CALRIOstar plate reader with MARS data analysis software (BMG Labtech), with the following settings: 665/10 nm and 620/10 nm emission, 60 μs delay and 400 μs integration. The TR-FRET ratio was taken as the 665/620 nm intensity ratio.

GST-tagged wild-type human CRBN protein, sequence (Q96SW2 whole entry): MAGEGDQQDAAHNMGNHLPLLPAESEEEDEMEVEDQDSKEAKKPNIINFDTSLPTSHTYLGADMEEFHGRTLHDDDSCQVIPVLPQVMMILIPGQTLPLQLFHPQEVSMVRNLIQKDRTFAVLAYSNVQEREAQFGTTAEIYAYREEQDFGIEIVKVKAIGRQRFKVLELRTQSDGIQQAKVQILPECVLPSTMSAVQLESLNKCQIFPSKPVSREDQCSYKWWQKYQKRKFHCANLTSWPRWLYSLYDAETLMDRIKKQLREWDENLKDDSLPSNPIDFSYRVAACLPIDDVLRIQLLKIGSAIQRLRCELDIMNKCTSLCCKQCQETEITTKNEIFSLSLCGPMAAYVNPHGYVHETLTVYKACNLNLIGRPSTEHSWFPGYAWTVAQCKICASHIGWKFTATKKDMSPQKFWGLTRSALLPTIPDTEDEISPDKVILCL

IC50 [nM]	SMILES
7890	O=C1CCC(N2C(=O)c3cc4c(cc3C2=O)OC(CO)CO4)C(=O)N1 (stereo not shown) [Compound B15, 7-(2,6-dioxopiperidin-3-yl)-2-(hydroxymethyl)-2,3-dihydro-6H-[1,4]dioxino[2,3-f]isoindole-6,8(7H)-dione]
540	O=C1CC[C@H](N2Cc3c(ccc4c3O[C@@H](CO)CO4)C2=O)C(=O)N1 [Compound B6, (S)-3-((S)-2-(hydroxymethyl)-7-oxo-2,3,7,9-tetrahydro-8H-[1,4]dioxino[2,3-e]isoindol-8-yl)piperidine-2,6-dione]
3100	O=C1CC[C@H](N2Cc3cc4c(cc3C2=O)OC[C@H](CO)O4)C(=O)N1 [Compound B11, (S)-3-((S)-2-(hydroxymethyl)-6-oxo-2,3,6,8-tetrahydro-7H-[1,4]dioxino[2,3-f]isoindol-7-yl)piperidine-2,6-dione]
120	O=C1CC[C@H](N2Cc3c(ccc4c3OC[C@H](COCc3ccccc3)O4)C2=O)C(=O)N1 [Compound B3, (S)-3-((S)-3-((benzyloxy)methyl)-7-oxo-2,3,7,9-tetrahydro-8H-[1,4]dioxino[2,3-e]isoindol-8-yl)piperidine-2,6-dione]
1000	O=C1CCC(N2Cc3c(ccc4c3O[C@H](CO)CO4)C2=O)C(=O)N1 (stereo partly drawn) [Compound B8, 3-((R)-2-(hydroxymethyl)-7-oxo-2,3,7,9-tetrahydro-8H-[1,4]dioxino[2,3-e]isoindol-8-yl)piperidine-2,6-dione]
310	O=C1CC[C@H](N2Cc3c(ccc4c3OC[C@H](CO)O4)C2=O)C(=O)N1 [Compound B4, (S)-3-((S)-3-(hydroxymethyl)-7-oxo-2,3,7,9-tetrahydro-8H-[1,4]dioxino[2,3-e]isoindol-8-yl)piperidine-2,6-dione]
300	O=C1CC[C@H](N2Cc3c(ccc4c3OCC(COCc3ccccc3)O4)C2=O)C(=O)N1 (stereo in doubt) [Compound B1, (S)-3-((S)-3-((benzyloxy)methyl)-7-oxo-2,3,7,9-tetrahydro-8H-[1,4]dioxino[2,3-e]isoindol-8-yl)piperidine-2,6-dione]
5160	O=C1CCC(N2C(=O)c3cc4c(cc3C2=O)O[C@@H](COCc2ccccc2)CO4)C(=O)N1 (stereo partly drawn) [Compound B14, (2S)-2-((benzyloxy)methyl)-7-(2,6-dioxopiperidin-3-yl)-2,3-dihydro-6H-[1,4]dioxino[2,3-f]isoindole-6,8(7H)-dione]
120	O=C1CCC(N2Cc3c(ccc4c3OC[C@H](COCc3ccccc3)N4)C2=O)C(=O)N1 (stereo partly drawn) [Compound B5, 3-((S)-3-((benzyloxy)methyl)-7-oxo-3,4,7,9-tetrahydro-[1,4]oxazino[2,3-e]isoindol-8(2H)-yl)piperidine-2,6-dione]
3100	O=C1CCC(N2C(=O)c3cc4c(cc3C2=O)O[C@@H](COCc2ccccc2)CO4)C(=O)N1 (stereo partly drawn) [Compound B13, (2S)-2-((benzyloxy)methyl)-7-(2,6-dioxopiperidin-3-yl)-2,3-dihydro-6H-[1,4]dioxino[2,3-f]isoindole-6,8(7H)-dione]
410	O=C1CC[C@H](N2Cc3c(ccc4c3OCC(CO)O4)C2=O)C(=O)N1 (stereo in doubt) [Compound B2, (S)-3-((S)-3-(hydroxymethyl)-7-oxo-2,3,7,9-tetrahydro-8H-[1,4]dioxino[2,3-e]isoindol-8-yl)piperidine-2,6-dione]
510	O=C1CC[C@H](N2Cc3c(ccc4c3O[C@H](CO)CO4)C2=O)C(=O)N1 [Compound B7, (S)-3-((R)-2-(hydroxymethyl)-7-oxo-2,3,7,9-tetrahydro-8H-[1,4]dioxino[2,3-e]isoindol-8-yl)piperidine-2,6-dione]
3000	O=C1CC[C@H](N2Cc3cc4c(cc3C2=O)OC[C@H](COCc2ccccc2)O4)C(=O)N1 [Compound B12, (S)-3-((S)-2-((benzyloxy)methyl)-6-oxo-2,3,6,8-tetrahydro-7H-[1,4]dioxino[2,3-f]isoindol-7-yl)piperidine-2,6-dione]

Target: ER (Homo sapiens (Human), UniProt P03372)
Test: In-Cell Western (ICW) ER degradation assay in MCF-7 and T47D cell lines
Assay type: cell-based
Conditions: ER level by In-Cell Western, 16 hrs treatment; MCF-7 and T47D described, cell line not given
Experimental: Subsequently, cells were blocked with Intercept (PBS) Blocking Buffer (Li-COR, Odyssey Blocking Buffer), and were stained with ER (1:500, Cell signaling) primary antibody for overnight at cold room. • Day 4: Remove the buffer, add IRDye 800CW Goat anti-Rabbit IgG Secondary Antibody (1:2000) and CellTag 700 Stain (1:500) in Intercept (PBS) Blocking Buffer. Finally, cell plate is placed in incubator to dry. Image and signal were captured on Odyssey® DLx Imaging System.
In-cell western blot analysis. a. seed cells in black-sided/clear bottom 96- or 384-well plates at 40,000 or 10,000 cells/well, overnight; b. add diluted compounds (final 0.5% DMSO), 16 hours. 16 h later, remove medium, add 100 μL or 25 μL of 3.7-4.0% formaldehyde (PBS:FA=9:1), RT 20 min, no shaking; c. wash with PBS, and permeabilized with 100 μL or 25 μL/well of 1×PBS+0.1% Triton X-100 10 minutes; d. block with 100 μL or 25 μL Licor blocking buffer (Li-Cor), RT 1 h, moderate shaking; d. Add 100 μL or 25 μL of anti-ER (cs-8644, 1:500-1,000)+GAPDH (Millipore MAB374, 1:1000) in Block+0.05% Tween 20. RT 2 h, gentle shaking.
Negative control: cells plus secondary antibodies (no primary antibodies); e. wash ×4 with PBS+0.05-0.1% Tween 20, gentle shaking; f. anti-rabbit-680 and anti-mouse-800 (both 1:1000 in LiCor block+0.05% Tween20, RT 1 h, gentle shaking, no light. LI-COR: 0.2% to reduce background; g. wash ×4 with PBS+0.05% Tween 20, gentle shaking; h. add 100 μL or 25 μL of PBS to each well and read on CLX plate reader. The relative ER percentage in treated cells were obtained by comparing the values of treated wells to those in untreated and DMSO-treated wells as 100%.

ER, sequence (P03372 whole entry): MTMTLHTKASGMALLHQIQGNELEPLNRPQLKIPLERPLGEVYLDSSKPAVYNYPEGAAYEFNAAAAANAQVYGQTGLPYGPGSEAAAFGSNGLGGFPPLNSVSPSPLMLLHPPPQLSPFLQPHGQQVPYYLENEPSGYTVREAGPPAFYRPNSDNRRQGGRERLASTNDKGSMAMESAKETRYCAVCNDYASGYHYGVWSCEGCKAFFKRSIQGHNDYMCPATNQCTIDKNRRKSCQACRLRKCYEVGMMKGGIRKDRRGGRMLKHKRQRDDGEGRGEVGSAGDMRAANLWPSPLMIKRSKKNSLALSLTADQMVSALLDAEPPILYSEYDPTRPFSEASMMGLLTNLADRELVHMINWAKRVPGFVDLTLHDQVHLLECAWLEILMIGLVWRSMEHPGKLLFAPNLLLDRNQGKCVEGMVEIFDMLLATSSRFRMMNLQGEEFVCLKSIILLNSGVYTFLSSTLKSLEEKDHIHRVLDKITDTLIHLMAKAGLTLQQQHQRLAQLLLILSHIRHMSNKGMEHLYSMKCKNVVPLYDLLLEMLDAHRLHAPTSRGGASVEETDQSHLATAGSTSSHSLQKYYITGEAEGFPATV

DC50 [nM]	SMILES
> 100	O=C1CCC(N2Cc3cc4c(cc3C2=O)OC[C@H](CN2CCC3(CC2)CCN(c2ccc([C@@H]5c6ccc(O)cc6CC[C@@H]5c5ccccc5)cc2)CC3)O4)C(=O)N1 (stereo partly drawn) [THP-B391, 3-((S)-2-((9-(4-((1R,2S)-6-hydroxy-2-phenyl-1,2,3,4-tetrahydronaphthalen-1-yl)phenyl)-3,9-diazaspiro[5.5]undecan-3-yl)methyl)-6-oxo-2,3,6,8-tetrahydro-7H-[1,4]dioxino[2,3-f]isoindol-7-yl)piperidine-2,6-dione]
> 100	O=C1CC[C@H](N2Cc3c(ccc4c3OC[C@@H](CN3CCC5(CC3)CCN(c3ccc([C@@H]6c7ccc(O)cc7CC[C@@H]6c6ccccc6)cc3)CC5)O4)C2=O)C(=O)N1 [THP-B370]
10 to 100	O=C1CC[C@H](N2Cc3c(ccc4c3OC[C@@H](CN3CC5(CCN(c6ccc([C@@H]7c8ccc(O)cc8CC[C@@H]7c7ccccc7)cc6)CC5)C3)O4)C2=O)C(=O)N1 [THP-B375]
> 100	O=C1CC[C@H](N2Cc3c(ccc4c3OC[C@H](CN3CCC5(CC3)CCN(c3ccc([C@@H]6c7ccc(O)cc7CC[C@@H]6c6ccccc6)cc3)CC5)O4)C2=O)C(=O)N1 [THP-B387]

Test system: T47D cell line
Test: Cell growth inhibition in T47D cell line
Assay type: cell-based
Conditions: Homo sapiens

IC50 [nM]	SMILES
1 to 10	O=C1CC[C@H](N2Cc3c(ccc4c3OC[C@H](CN3CCC5(CC3)CCN(c3ccc([C@@H]6c7ccc(O)cc7CC[C@@H]6c6ccccc6)cc3)CC5)O4)C2=O)C(=O)N1 [THP-B392]
1 to 10	O=C1CCC(N2Cc3cc4c(cc3C2=O)OC[C@H](CN2CCC3(CC2)CCN(c2ccc([C@@H]5c6ccc(O)cc6CC[C@@H]5c5ccccc5)cc2)CC3)O4)C(=O)N1 (stereo partly drawn) [THP-B391, 3-((S)-2-((9-(4-((1R,2S)-6-hydroxy-2-phenyl-1,2,3,4-tetrahydronaphthalen-1-yl)phenyl)-3,9-diazaspiro[5.5]undecan-3-yl)methyl)-6-oxo-2,3,6,8-tetrahydro-7H-[1,4]dioxino[2,3-f]isoindol-7-yl)piperidine-2,6-dione]
< 1	O=C1CC[C@H](N2Cc3c(ccc4c3OC[C@H](CN3CC5(CCN(c6ccc([C@@H]7c8ccc(O)cc8CC[C@@H]7c7ccccc7)cc6)CC5)C3)O4)C2=O)C(=O)N1 [THP-B393]
1 to 10	O=C1CC[C@H](N2Cc3c(ccc4c3OC[C@@H](CN3CCC5(CC3)CCN(c3ccc([C@@H]6c7ccc(O)cc7CC[C@@H]6c6ccccc6)cc3)CC5)O4)C2=O)C(=O)N1 [THP-B370]
< 1	O=C1CC[C@H](N2Cc3c(ccc4c3OC[C@@H](CN3CC5(CCN(c6ccc([C@@H]7c8ccc(O)cc8CC[C@@H]7c7ccccc7)cc6)CC5)C3)O4)C2=O)C(=O)N1 [THP-B375]
